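Cells were grown in 96-well plates and exposed to each compound for 48 hours at five concentrations; endpoints were interpolated linearly between bracketing concentrations, or set to the highest concentration if not reached. TGI: total growth inhibition.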
Columns and labels:
Test in all cases: NCI anticancer screen, dose series, 48 h
A549 NSCLC = tested on: A549 NSCLC
HOP-62 NSCLC = tested on: HOP-62 NSCLC
UACC-62 melanoma = tested on: UACC-62 melanoma
IGROV1 ovarian = tested on: IGROV1 ovarian
NCI-H522 lung = tested on: NCI-H522 lung
SK-MEL-2 melanoma = tested on: SK-MEL-2 melanoma
SN12C renal = tested on: SN12C renal
CCRF-CEM leukemia = tested on: CCRF-CEM leukemia
RXF 393 renal = tested on: RXF 393 renal
MOLT-4 leukemia = tested on: MOLT-4 leukemia
SW-620 colon = tested on: SW-620 colon
OVCAR-5 ovarian = tested on: OVCAR-5 ovarian
M14 melanoma = tested on: M14 melanoma
K-562 leukemia = tested on: K-562 leukemia
UO-31 renal = tested on: UO-31 renal
LOX IMVI melanoma = tested on: LOX IMVI melanoma
NCI-H460 lung = tested on: NCI-H460 lung
U251 CNS = tested on: U251 CNS
HT29 colon = tested on: HT29 colon
HCC-2998 colon = tested on: HCC-2998 colon
SK-MEL-28 melanoma = tested on: SK-MEL-28 melanoma
A498 renal = tested on: A498 renal
DMS 273 small cell lung = tested on: DMS 273 small cell lung
OVCAR-4 ovarian = tested on: OVCAR-4 ovarian
COLO 205 colon = tested on: COLO 205 colon
EKVX NSCLC = tested on: EKVX NSCLC
SNB-19 CNS = tested on: SNB-19 CNS
KM20L2 colon = tested on: KM20L2 colon
786-0 renal = tested on: 786-0 renal
RPMI-8226 leukemia = tested on: RPMI-8226 leukemia
ACHN renal = tested on: ACHN renal
HL-60(TB) leukemia = tested on: HL-60(TB) leukemia
OVCAR-8 ovarian = tested on: OVCAR-8 ovarian
TK-10 renal = tested on: TK-10 renal
CAKI-1 renal = tested on: CAKI-1 renal
SR leukemia = tested on: SR leukemia
LXFL 529 NSCLC = tested on: LXFL 529 NSCLC
SF-295 CNS = tested on: SF-295 CNS
HCT-15 colon = tested on: HCT-15 colon
HCT-116 colon = tested on: HCT-116 colon
SF-539 CNS = tested on: SF-539 CNS
NCI-H226 lung = tested on: NCI-H226 lung
SF-268 CNS = tested on: SF-268 CNS
OVCAR-3 ovarian = tested on: OVCAR-3 ovarian
SNB-78 CNS = tested on: SNB-78 CNS
NCI-H23 lung = tested on: NCI-H23 lung
KM12 colon = tested on: KM12 colon
UACC-257 melanoma = tested on: UACC-257 melanoma
PC-3 prostate = tested on: PC-3 prostate
MDA-N = tested on: MDA-N
MDA-MB-435 = tested on: MDA-MB-435
BT-549 breast = tested on: BT-549 breast
DMS 114 small cell lung = tested on: DMS 114 small cell lung
HOP-92 NSCLC = tested on: HOP-92 NSCLC
DU-145 prostate = tested on: DU-145 prostate
T-47D breast = tested on: T-47D breast
HS 578T breast = tested on: HS 578T breast
SNB-75 CNS = tested on: SNB-75 CNS
DLD-1 colon = tested on: DLD-1 colon
M19-MEL melanoma = tested on: M19-MEL melanoma
SK-MEL-5 melanoma = tested on: SK-MEL-5 melanoma
MDA-MB-231 breast = tested on: MDA-MB-231 breast
NCI/ADR-RES ovarian = tested on: NCI/ADR-RES ovarian
MCF7 breast = tested on: MCF7 breast
MALME-3M melanoma = tested on: MALME-3M melanoma
SK-OV-3 ovarian = tested on: SK-OV-3 ovarian

Q: For `O=[N+]([O-])C(=C1c2ccccc2-c2ccccc21)[N+](=O)[O-]`, which TGI (A549 NSCLC) is on record?
A: > 100 µM

Q: And the TGI (HOP-62 NSCLC)?
A: > 100 µM

Q: And the TGI (UACC-62 melanoma)?
A: > 100 µM

Q: And the TGI (IGROV1 ovarian)?
A: > 100 µM

Q: And the TGI (NCI-H522 lung)?
A: > 100 µM

Q: What about the TGI (SK-MEL-2 melanoma) of the same compound?
A: > 100 µM

Q: What about the TGI (SN12C renal) of the same compound?
A: > 100 µM

Q: And the TGI (CCRF-CEM leukemia)?
A: > 100 µM

Q: And the TGI (RXF 393 renal)?
A: > 100 µM

Q: What about the TGI (MOLT-4 leukemia) of the same compound?
A: > 100 µM

Q: What about the TGI (SW-620 colon) of the same compound?
A: > 100 µM

Q: And the TGI (OVCAR-5 ovarian)?
A: > 100 µM

Q: And the TGI (M14 melanoma)?
A: > 100 µM

Q: And the TGI (K-562 leukemia)?
A: > 100 µM

Q: What about the TGI (UO-31 renal) of the same compound?
A: > 100 µM

Q: And the TGI (LOX IMVI melanoma)?
A: > 100 µM

Q: And the TGI (NCI-H460 lung)?
A: > 100 µM

Q: What about the TGI (U251 CNS) of the same compound?
A: > 100 µM

Q: What about the TGI (HT29 colon) of the same compound?
A: > 100 µM

Q: What about the TGI (HCC-2998 colon) of the same compound?
A: > 100 µM

Q: What about the TGI (SK-MEL-28 melanoma) of the same compound?
A: > 100 µM

Q: What about the TGI (A498 renal) of the same compound?
A: > 100 µM

Q: What about the TGI (DMS 273 small cell lung) of the same compound?
A: > 10 µM

Q: And the TGI (OVCAR-4 ovarian)?
A: > 100 µM

Q: And the TGI (COLO 205 colon)?
A: > 100 µM

Q: And the TGI (EKVX NSCLC)?
A: > 100 µM

Q: And the TGI (SNB-19 CNS)?
A: > 100 µM

Q: What about the TGI (KM20L2 colon) of the same compound?
A: > 100 µM

Q: And the TGI (786-0 renal)?
A: > 100 µM

Q: And the TGI (RPMI-8226 leukemia)?
A: > 100 µM

Q: What about the TGI (ACHN renal) of the same compound?
A: > 100 µM

Q: What about the TGI (HL-60(TB) leukemia) of the same compound?
A: 98.9 µM

Q: And the TGI (OVCAR-8 ovarian)?
A: > 100 µM

Q: And the TGI (TK-10 renal)?
A: > 100 µM

Q: And the TGI (CAKI-1 renal)?
A: > 100 µM

Q: And the TGI (SR leukemia)?
A: > 100 µM

Q: And the TGI (LXFL 529 NSCLC)?
A: > 100 µM

Q: And the TGI (SF-295 CNS)?
A: > 10 µM

Q: What about the TGI (HCT-15 colon) of the same compound?
A: > 10 µM

Q: What about the TGI (HCT-116 colon) of the same compound?
A: > 100 µM

Q: And the TGI (SF-539 CNS)?
A: > 100 µM

Q: And the TGI (NCI-H226 lung)?
A: > 100 µM

Q: What about the TGI (SF-268 CNS) of the same compound?
A: 84.8 µM

Q: What about the TGI (OVCAR-3 ovarian) of the same compound?
A: > 100 µM

Q: And the TGI (SNB-78 CNS)?
A: > 100 µM

Q: And the TGI (NCI-H23 lung)?
A: > 10 µM

Q: And the TGI (KM12 colon)?
A: > 100 µM

Q: And the TGI (UACC-257 melanoma)?
A: > 100 µM

Q: What does the source list for `CCN(CC)CCNc1ccc2nc(C)n3c4ccc(OC)cc4c(=O)c1c23`?
A: TGI (PC-3 prostate): 17.5 µM; TGI (A549 NSCLC): 15 µM; TGI (HOP-62 NSCLC): 21.7 µM; TGI (UACC-62 melanoma): 20 µM; TGI (MDA-N): 17.2 µM; TGI (MDA-MB-435): 27.1 µM; TGI (IGROV1 ovarian): 4.26 µM; TGI (NCI-H522 lung): 2.74 µM; TGI (SK-MEL-2 melanoma): 28 µM; TGI (SN12C renal): 15.2 µM; TGI (BT-549 breast): 22.5 µM; TGI (DMS 114 small cell lung): 14.6 µM; TGI (HOP-92 NSCLC): 20.7 µM; TGI (CCRF-CEM leukemia): 1.19 µM; TGI (RXF 393 renal): 10.5 µM; TGI (MOLT-4 leukemia): 1.15 µM; TGI (SW-620 colon): 9.27 µM; TGI (DU-145 prostate): 13.3 µM; TGI (OVCAR-5 ovarian): 20.3 µM; TGI (M14 melanoma): 24.1 µM; TGI (K-562 leukemia): 4.13 µM; TGI (T-47D breast): 33.8 µM; TGI (UO-31 renal): 16.3 µM; TGI (LOX IMVI melanoma): 2.55 µM; TGI (NCI-H460 lung): 2.42 µM; TGI (U251 CNS): 20.6 µM; TGI (HS 578T breast): 6.68 µM; TGI (HT29 colon): 1.99 µM; TGI (SNB-75 CNS): 19 µM; TGI (HCC-2998 colon): 6.2 µM; TGI (SK-MEL-28 melanoma): 25.9 µM; TGI (DLD-1 colon): 10.9 µM; TGI (A498 renal): 20.6 µM; TGI (DMS 273 small cell lung): 11.5 µM; TGI (OVCAR-4 ovarian): 8.25 µM; TGI (COLO 205 colon): 13 µM; TGI (EKVX NSCLC): 13.9 µM; TGI (SNB-19 CNS): 13.7 µM; TGI (M19-MEL melanoma): 19.5 µM; TGI (786-0 renal): 7.88 µM; TGI (RPMI-8226 leukemia): 5.34 µM; TGI (ACHN renal): 13.3 µM; TGI (HL-60(TB) leukemia): 2.96 µM; TGI (OVCAR-8 ovarian): 9.25 µM; TGI (TK-10 renal): 4.75 µM; TGI (CAKI-1 renal): 13 µM; TGI (SK-MEL-5 melanoma): 19.1 µM; TGI (SR leukemia): 0.56 µM; TGI (MDA-MB-231 breast): 16.9 µM; TGI (LXFL 529 NSCLC): 17.5 µM; TGI (SF-295 CNS): 7.82 µM; TGI (NCI/ADR-RES ovarian): 15.1 µM; TGI (HCT-15 colon): 10.3 µM; TGI (HCT-116 colon): 6 µM; TGI (SF-539 CNS): 18.7 µM; TGI (NCI-H226 lung): 7.11 µM; TGI (SF-268 CNS): 15.3 µM; TGI (OVCAR-3 ovarian): 19.8 µM; TGI (MCF7 breast): 6.57 µM; TGI (NCI-H23 lung): 18.3 µM; TGI (KM12 colon): 14.6 µM; TGI (MALME-3M melanoma): 21.7 µM; TGI (UACC-257 melanoma): 22.3 µM; TGI (SK-OV-3 ovarian): 19.5 µM

Q: What does the source list for `Cc1ccccc1-n1c(=O)nc2n(-c3ccc(C(C)(C)C)cc3)c3ccccc3cc-2c1=O`?
A: TGI (PC-3 prostate): 45.6 µM; TGI (A549 NSCLC): > 100 µM; TGI (HOP-62 NSCLC): 39.7 µM; TGI (UACC-62 melanoma): 41 µM; TGI (MDA-N): 82.4 µM; TGI (MDA-MB-435): 27.9 µM; TGI (IGROV1 ovarian): 64.5 µM; TGI (NCI-H522 lung): 47.6 µM; TGI (SK-MEL-2 melanoma): 34.8 µM; TGI (SN12C renal): 38.1 µM; TGI (BT-549 breast): 69.6 µM; TGI (HOP-92 NSCLC): 50.1 µM; TGI (CCRF-CEM leukemia): 50.5 µM; TGI (RXF 393 renal): 39 µM; TGI (MOLT-4 leukemia): 55.1 µM; TGI (SW-620 colon): 33.5 µM; TGI (DU-145 prostate): 77.1 µM; TGI (OVCAR-5 ovarian): 63.6 µM; TGI (M14 melanoma): 32.4 µM; TGI (K-562 leukemia): > 100 µM; TGI (T-47D breast): > 100 µM; TGI (UO-31 renal): 95.1 µM; TGI (LOX IMVI melanoma): 30.3 µM; TGI (NCI-H460 lung): 28.7 µM; TGI (U251 CNS): 28.3 µM; TGI (HS 578T breast): 79.7 µM; TGI (HT29 colon): 34.6 µM; TGI (SNB-75 CNS): 66.3 µM; TGI (HCC-2998 colon): 32.4 µM; TGI (SK-MEL-28 melanoma): 28.7 µM; TGI (A498 renal): 86.6 µM; TGI (OVCAR-4 ovarian): 92.5 µM; TGI (COLO 205 colon): 41.6 µM; TGI (EKVX NSCLC): 64.6 µM; TGI (SNB-19 CNS): 54.4 µM; TGI (786-0 renal): 69.9 µM; TGI (RPMI-8226 leukemia): 52.9 µM; TGI (ACHN renal): > 100 µM; TGI (HL-60(TB) leukemia): 43.2 µM; TGI (OVCAR-8 ovarian): 42.9 µM; TGI (TK-10 renal): > 100 µM; TGI (CAKI-1 renal): 71.4 µM; TGI (SK-MEL-5 melanoma): 28.5 µM; TGI (SR leukemia): 59.7 µM; TGI (MDA-MB-231 breast): 42.9 µM; TGI (SF-295 CNS): 53.1 µM; TGI (NCI/ADR-RES ovarian): 40.6 µM; TGI (HCT-15 colon): 32.8 µM; TGI (HCT-116 colon): 28.8 µM; TGI (SF-539 CNS): 36 µM; TGI (NCI-H226 lung): 38.2 µM; TGI (SF-268 CNS): 83.2 µM; TGI (OVCAR-3 ovarian): 40.9 µM; TGI (MCF7 breast): 59.9 µM; TGI (NCI-H23 lung): 58.2 µM; TGI (KM12 colon): 29.8 µM; TGI (UACC-257 melanoma): 37.1 µM

From PubChem BioAssay (NCI)
